Source: patent US9060515B2, “Heterocyclic urea compounds” (BIOTA EUROPE LTD, priority 2011, dated 2015)
Values after ≈ are worked out from the molar mass of the structure shown. Like-named read-outs stand apart in the source and are kept apart here.

Experiments:
Format in all cases: cell-based
[1] = test system: E. faecalis (ATCC 29212); assay: Antibacterial susceptibility testing (MIC, broth microdilution or agar dilution), E. faecalis
Description: (§1) Compounds of the invention were tested for antimicrobial activity by susceptibility testing in liquid or on solid media. MICs for compounds against each strain were determined by the broth microdilution or agar dilution method according to the guidelines of the Clinical Laboratories and Standards Institute, formerly the National Committee for Clinical Laboratory Standards (Clinical Laboratories and Standards Institute. Methods for Dilution Antimicrobial Susceptibility Tests for Bacteria That Grow Aerobically; Approved Standard—Seventh Edition. Document M7-A7. CLSI, Wayne, Pa., 2006; Clinical Laboratories and Standards Institute. The Gram positive bacterial strains tested include S. aureus (Staphylococcus aureus (Isolate ID ATCC 29213)), E. faecalis (Enterococcus faecalis (Isolate ID ATCC 29212)) and S. pyogenes (Streptococcus pyogenes (Isolate ID ATCC 51339)). The Gram negative bacterial strains tested include H. influenzae (Haemophilus influenzae (Isolate ID ATCC 49247)).

[2] = test system: S. aureus (ATCC 29213); assay: Antibacterial susceptibility testing (MIC, broth microdilution or agar dilution), S. aureus
Description: as §1

[3] = test system: S. pyogenes (ATCC 51339); assay: Antibacterial susceptibility testing (MIC, broth microdilution or agar dilution), S. pyogenes; details: Streptococcus pyogenes, ATCC51339; read-out: S. pyogenes (ATCC 51339) minimal inhibitory concentration (MIC)
Description: as §1

[4] = Enterococcus faecalis, ATCC29212; read-out: E. faecalis (ATCC 29212) minimal inhibitory concentration (MIC)
[5] = Staphylococcus aureus, ATCC29213; read-out: S. aureus (ATCC 29213) minimal inhibitory concentration (MIC)

| SMILES | MIC [1, 4] | MIC [2, 5] | MIC [3] | further results |
| --- | --- | --- | --- | --- |
| CCNC(=O)Nc1cc(Nc2ccccc2)c(C(=O)Nc2ccccc2)nn1 [Compound 212, 6-[(ethylcarbamoyl)amino]-N-phenyl-4-(phenylamino)pyridazine-3-carboxamide] | 8 µg/mL (≈ 21.3 µM) | – | – | – |
| CCNC(=O)Nc1cc(Nc2ccc(F)c(F)c2)c(C(=O)Nc2ccc(CCC(=O)OCC)cc2)cn1 [Compound 215, ethyl 3-{4-[({4-[(3,4-difluorophenyl)amino]-6-[(ethylcarbamoyl)amino]pyridin-3-yl}carbonyl)amino]phenyl}propanoate] | ≤ 1 µg/mL | ≤ 1 µg/mL | – | – |
| CCNC(=O)Nc1cc(Nc2ccc(F)c(C)c2)c(C(=O)Nc2ccc(CCC(=O)OCC)cc2)cn1 [Compound 218, ethyl 3-{4-[({6-[(ethylcarbamoyl)amino]-4-[(4-fluoro-3-methylphenyl)amino]pyridin-3-yl}carbonyl)amino]phenyl}propanoate] | ≤ 1 µg/mL | – | – | – |
| CCNC(=O)Nc1cc(Nc2ccc(C#N)cc2)c(C(=O)Nc2ccc(CN3CCCC3)cc2)cn1 [Compound 203, 4-[(4-cyanophenyl)amino]-6-[(ethylcarbamoyl)amino]-N-[4-(pyrrolidin-1-ylmethyl)phenyl]pyridine-3-carboxamide] | ≤ 1 µg/mL | 2 µg/mL (≈ 4.14 µM) | – | – |
| CCNC(=O)Nc1cc(Nc2ccccc2)c(C(=O)Nc2ccnc(C(=O)OC)c2)cn1 [Compound 21, methyl 4-(6-(3-ethylureido)-4-(phenylamino)nicotinamido)picolinate] | ≤ 1 µg/mL | – | – | – |
| CCNC(=O)Nc1cc(Nc2ccc(F)cc2)c(C(=O)Nc2ccc(CN3CCCC3)cc2)cn1 [Compound 200, 6-[(ethylcarbamoyl)amino]-4-[(4-fluorophenyl)amino]-N-[4-(pyrrolidin-1-ylmethyl)phenyl]pyridine-3-carboxamide] | 2 µg/mL (≈ 4.2 µM) | 8 µg/mL (≈ 16.8 µM) | – | – |
| CCNC(=O)Nc1cc(Nc2ccccc2)c(C(=O)Nc2ccc(CP(=O)(O)O)cc2)cn1 [Compound 207, {4-[({6-[(ethylcarbamoyl)amino]-4-(phenylamino)pyridin-3-yl}carbonyl)amino]benzyl}phosphonic acid] | 8 µg/mL (≈ 17 µM) | – | – | – |
| CCNC(=O)Nc1cc(Nc2ccccc2)c(C(=O)Nc2ccc(C(=O)NC)cc2)cn1 [Compound 213, 6-[(ethylcarbamoyl)amino]-N-[4-(methylcarbamoyl)phenyl]-4-(phenylamino)pyridine-3-carboxamide] | ≤ 1 µg/mL | 4 µg/mL (≈ 9.25 µM) | – | – |
| CCNC(=O)Nc1cc(Nc2ccccc2)c(C(=O)Nc2ccc(CP(=O)(OCC)OCC)cc2)cn1 [Compound 206] | – | – | – | MIC ([2]; Staphylococcus aureus, ATCC29213, read-out: S. aureus (ATCC 29213) minimal inhibitory concentration (MIC)): ≤ 1 µg/mL; MIC ([1]; Enterococcus faecalis, ATCC29212, read-out: E. faecalis (ATCC 29212) minimal inhibitory concentration (MIC)): ≤ 1 µg/mL |
| CCNC(=O)Nc1cc(Nc2ccc(F)cc2F)c(C(=O)Nc2ccc(CCC(=O)OCC)cc2)cn1 [Compound 227] | ≤ 1 µg/mL | – | – | – |
| CCNC(=O)Nc1cc(Nc2ccc(F)cc2)c(C(=O)Nc2ccc(CN3CCOCC3)cc2)cn1 [Compound 201, 6-[(ethylcarbamoyl)amino]-4-[(4-fluorophenyl)amino]-N-[4-(morpholin-4-ylmethyl)phenyl]pyridine-3-carboxamide] | ≤ 1 µg/mL | 2 µg/mL (≈ 4.06 µM) | – | – |
| CCNC(=O)Nc1cc(Nc2ccc(C#N)cc2)c(C(=O)Nc2ccc(CN3CCN(C)CC3)cc2)cn1 [Compound 205, 4-[(4-cyanophenyl)amino]-6-[(ethylcarbamoyl)amino]-N-{4-[(4-methylpiperazin-1-yl)methyl]phenyl}pyridine-3-carboxamide] | ≤ 1 µg/mL | 2 µg/mL (≈ 3.9 µM) | – | – |
| CCNC(=O)Nc1cc(Nc2cc(F)cc(F)c2)c(C(=O)Nc2ccc(CCC(=O)OCC)cc2)cn1 [Compound 234, ethyl 3-{4-[({4-[(3,5-difluorophenyl)amino]-6-[(ethylcarbamoyl)amino]pyridin-3-yl}carbonyl)amino]phenyl}propanoate] | ≤ 1 µg/mL | – | – | – |
| CCNC(=O)Nc1cc(Nc2ccc(F)cc2)c(C(=O)Nc2ccc(CN3CCN(C)CC3)cc2)cn1 [Compound 202, 6-[(ethylcarbamoyl)amino]-4-[(4-fluorophenyl)amino]-N-{4-[(4-methylpiperazin-1-yl)methyl]phenyl}pyridine-3-carboxamide] | 2 µg/mL (≈ 3.96 µM) | 8 µg/mL (≈ 15.8 µM) | – | – |
| CCNC(=O)Nc1cc(Nc2ccc(Cl)cc2)c(C(=O)Nc2ccc(-n3cccc3C(=O)OC)cc2)cn1 [Compound 197, methyl 1-{4-[({4-[(4-chlorophenyl)amino]-6-[(ethylcarbamoyl)amino]pyridin-3-yl}carbonyl)amino]phenyl}-1H-pyrrole-2-carboxylate] | 4 µg/mL (≈ 7.5 µM) | – | – | – |
| CCNC(=O)Nc1cc(Nc2cc(Cl)cc(Cl)c2)c(C(=O)Nc2ccc(CCC(=O)OCC)cc2)cn1 [Compound 225, ethyl 3-{4-[({4-[(3,5-dichlorophenyl)amino]-6-[(ethylcarbamoyl)amino]pyridin-3-yl}carbonyl)amino]phenyl}propanoate] | ≤ 1 µg/mL | 4 µg/mL (≈ 7.35 µM) | – | – |

| SMILES | MIC [1, 4] | MIC [2, 5] | MIC [3] | further results |
| --- | --- | --- | --- | --- |
| CCNC(=O)Nc1cc(Nc2ccc(C)c(F)c2)c(C(=O)Nc2ccc(CCC(=O)OCC)cc2)cn1 [Compound 217, ethyl 3-{4-[({6-[(ethylcarbamoyl)amino]-4-[(3-fluoro-4-methylphenyl)amino]pyridin-3-yl}carbonyl)amino]phenyl}propanoate] | ≤ 1 µg/mL | – | – | – |
| CCNC(=O)Nc1cc(Nc2ccc(Cl)cc2F)c(C(=O)Nc2ccc(CCC(=O)OCC)cc2)cn1 [Compound 219, ethyl 3-{4-[({4-[(4-chloro-2-fluorophenyl)amino]-6-[(ethylcarbamoyl)amino]pyridin-3-yl}carbonyl)amino]phenyl}propanoate] | ≤ 1 µg/mL | – | – | – |
| CCNC(=O)Nc1cc(Nc2ccccc2Cl)c(C(=O)Nc2cccnc2)cn1 [Compound 105, 4-(2-chlorophenylamino)-6-(3-ethylureido)-N-(pyridin-3-yl)nicotinamide] | – | ≤ 1 µg/mL | ≤ 1 µg/mL | – |
| CCNC(=O)Nc1cc(Nc2ccccc2)c(C(=O)NCC)cn1 [Compound 8, N-Ethyl-6-(3-ethylureido)-4-(phenylamino)nicotinamide] | – | 32 µg/mL (≈ 97.7 µM) | 16 µg/mL (≈ 48.9 µM) | – |
| CCNC(=O)Nc1cc(Nc2ccccc2)c(C(=O)Nc2ccc(OC)nc2)cn1 [Compound 63, 6-(3-ethylureido)-N-(6-methoxypyridin-3-yl)-4-(phenylamino)nicotinamide] | – | ≤ 1 µg/mL | ≤ 1 µg/mL | – |
| CCNC(=O)Nc1cc(Nc2ccccc2)c(C(=O)Nc2ccn(CC(=O)O)n2)cn1 [Compound 233, {3-[({6-[(ethylcarbamoyl)amino]-4-(phenylamino)pyridin-3-yl}carbonyl)amino]-1H-pyrazol-1-yl}acetic acid] | 2 µg/mL (≈ 4.72 µM) | – | – | – |
| CCNC(=O)Nc1cc(Nc2ccccc2)c(C(=O)Nc2ccc3nccn3c2)cn1 [Compound 76, 6-(3-ethylureido)-N-(imidazo[1,2-a]pyridin-6-yl)-4-(phenylamino)nicotinamide] | – | 2 µg/mL (≈ 4.81 µM) | ≤ 1 µg/mL | – |
| CCNC(=O)Nc1cc(Nc2cccc(F)c2)c(C(=O)Nc2ccc(CCC(=O)OCC)cc2)cn1 [Compound 216, ethyl 3-{4-[({6-[(ethylcarbamoyl)amino]-4-[(3-fluorophenyl)amino]pyridin-3-yl}carbonyl)amino]phenyl}propanoate] | ≤ 1 µg/mL | – | – | – |
| CCNC(=O)Nc1cc(Nc2ccccc2)c(C(=O)Nc2ccc(C)nc2)cn1 [Compound 81, 6-(3-ethylureido)-N-(6-methylpyridin-3-yl)-4-(phenylamino)nicotinamide] | – | ≤ 1 µg/mL | ≤ 1 µg/mL | – |
| CCNC(=O)Nc1cc(Nc2ccccc2)c(C(=O)Nc2cc(F)cc(F)c2)cn1 [Compound 66, N-(3,5-difluorophenyl)-6-(3-ethylureido)-4-(phenylamino)nicotinamide] | – | ≤ 1 µg/mL | 4 µg/mL (≈ 9.72 µM) | – |
| CCNC(=O)Nc1cc(Nc2ccc(C(=O)OCC)cc2)c(C(=O)Nc2cccnc2)cn1 [Compound 15, Ethyl 4-(2-(3-ethylureido)-5-(pyridin-3-ylcarbamoyl)pyridin-4-ylamino)benzoate] | – | ≤ 1 µg/mL | ≤ 1 µg/mL | – |
| CCNC(=O)Nc1cc(Nc2ccccc2)c(C(=O)Nc2ccc(NC(C)C)nc2)cn1 [Compound 95, 6-(3-ethylureido)-N-(6-(isopropylamino)pyridin-3-yl)-4-(phenylamino)nicotinamide] | – | 2 µg/mL (≈ 4.61 µM) | ≤ 1 µg/mL | – |
| CCNC(=O)Nc1cc(Nc2ccccc2)c(C(=O)Nc2ccn(C)n2)cn1 [Compound 59, 6-(3-ethylureido)-N-(1-methyl-1H-pyrazol-3-yl)-4-(phenylamino)nicotinamide] | – | 8 µg/mL (≈ 21.1 µM) | 2 µg/mL (≈ 5.27 µM) | – |
| CCNC(=O)Nc1cc(Nc2ccccc2)c(C(=O)Nc2ccc(CCC(=O)N(C)C)cc2)cn1 [Compound 119, N-(4-(3-(dimethylamino)-3-oxopropyl)phenyl)-6-(3-ethylureido)-4-(phenylamino)nicotinamide] | – | ≤ 1 µg/mL | ≤ 1 µg/mL | – |
| CCNC(=O)Nc1cc(Nc2ccccc2)c(C(=O)Nc2ccc(-n3cncn3)nc2)cn1 [Compound 27, N-(6-(1H-1,2,4-triazol-1-yl)pyridin-3-yl)-6-(3-ethylureido)-4-(phenylamino)nicotinamide] | ≤ 1 µg/mL | – | – | – |
| CCNC(=O)Nc1cc(Nc2ccccc2)c(C(=O)Nc2cncc(C)c2)cn1 [Compound 91, 6-(3-ethylureido)-N-(5-methylpyridin-3-yl)-4-(phenylamino)nicotinamide] | – | ≤ 1 µg/mL | ≤ 1 µg/mL | – |
